Data as given in PubChem BioAssay AID1259411 (Chemical Carcinogenesis Research Information System (CCRIS), 2018).
Active and inactive are the calls of the source. No rule for the calls is given here.

Tested on: rodent carcinogenicity bioassays, tumor incidence
Assay: CCRIS carcinogenicity studies
Summary of the method: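 NCI-built, expert-reviewed records of carcinogenicity and related test outcomes (mutagenicity, tumor promotion/inhibition) compiled from published and report sources, historical span 1985-2011, not updated.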

COc1cc2c(c3oc(=O)c4c(c13)CCC4=O)[C@@H]1C=CO[C@@H]1O2
carcinogen call (Species: FISH, Strain/Sex: COHO SALMON, Route: DIET, Dose: 0, 40 PPB IN DIET FOR 4 WK (STUDY DURATION: 12 MO)): inactive; negative
carcinogen call (Species: FISH, Strain/Sex: COHO SALMON, Route: DIET, Dose: 0, 5000 PPB FOR 3 WK (STUDY DURATION: 12 MO)): inactive; negative
carcinogen call (Species: FISH, Strain/Sex: COHO SALMON, Route: IMMERSION, Dose: 0, 0.5 PPM AQUEOUS SOLUTION FOR 30 MIN EXPOSURE OF EMBRYOS 4-5 D BEFORE HATCHING (STUDY DURATION: 12 MO)): inactive; negative
carcinogen call (Species: FISH, Strain/Sex: MT. SHASTA RAINBOW TROUT, Route: IMMERSION, Dose: 0, 0.5 PPM AQUEOUS SOLUTION FOR 15 MIN EXPOSURE OF EMBRYOS 4-5 D BEFORE HATCHING (STUDY DURATION: 12 MO), Tumor Site: Type of Lesion: LIVER: HEPATOCELLULAR CARCINOMA): active; positive
carcinogen call (Species: FISH, Strain/Sex: MT. SHASTA RAINBOW TROUT, Route: ORAL, Dose: 0, 20 PPB IN DIET FOR 4 WK (STUDY DURATION: 12 MO), Tumor Site: Type of Lesion: LIVER: HEPATOCELLULAR CARCINOMA): active; positive
carcinogen call (Species: FISH, Strain/Sex: RAINBOW TROUT, Route: ORAL, Dose: 0, 1.5, 7.5 UG/DIET FOR 5.5 MO (STUDY DURATION: 5.5 MO), Dose: 0, 1.5, 7.5 UG/DIET FOR 5.5 MO (STUDY DURATION: 5.5 MO), Tumor Site: Type of Lesion: LIVER: HEPATOMA): active; positive
carcinogen call (Species: FISH, Strain/Sex: RAINBOW, Route: DIET, Dose: 0, 6 PPB FOR UP TO 1 YR, Tumor Site: Type of Lesion: LIVER: HEPATOCELLULAR CARCINOMA): active; positive
carcinogen call (Species: FISH, Strain/Sex: SHASTA RAINBOW TROUT/MALE, FEMALE, Route: IMMERSION, Dose: 0, 0.01, 0.025, 0.05, 0.1, 0.25, 0.5 PPM SOLUTION IN WATER FOR 1 HR EXPOSURE OF EMBRYOS (STUDY DURATION: 13 MO), Dose: 0, 0.01, 0.025, 0.05, 0.1, 0.25, 0.5 PPM SOLUTION IN WATER FOR 1 HR EXPOSURE OF EMBRYOS (STUDY DURATION: 13 MO), Tumor Site: Type of Lesion: LIVER: TUMOR): active; positive
carcinogen call (Species: FISH, Strain/Sex: SHASTA RAINBOW TROUT/MALE, FEMALE, Route: ORAL, Dose: 0, 4, 8, 16, 32, 64 PPB IN DIET FOR 2 WK FOLLOWED BY CONTROL DIET FOR THE DURATION OF STUDY (STUDY DURATION: 9 MO), Dose: 0, 4, 8, 16, 32, 64 PPB IN DIET FOR 2 WK FOLLOWED BY CONTROL DIET FOR THE DURATION OF STUDY (STUDY DURATION: 9 MO), Tumor Site: Type of Lesion: LIVER: TUMOR): active; positive
carcinogen call (Species: HUMAN, Route: ORAL, Tumor Site: Type of Lesion: LIVER): active; positive
carcinogen call (Species: MONKEY, Strain/Sex: AFRICAN GREEN/MALE,FEMALE, Route: INTRAPERITONEAL, Dose: 99-134 MG TOTAL DOSE, 1/WK FOR AT LEAST 2 YR, Tumor Site: Type of Lesion: LIVER: CARCINOMA, HEMANGIOENDOTHELIAL SARCOMA, GALL BLADDER (BILE DUCT): ADENOCARCINOMA, PANCREAS: HEMANGIOENDOTHELIAL S, Tumor Site: Type of Lesion: LIVER: CARCINOMA, HEMANGIOENDOTHELIAL SARCOMA, GALL BLADDER (BILE DUCT): ADENOCARCINOMA, PANCREAS: HEMANGIOENDOTHELIAL S): active; positive
carcinogen call (Species: MONKEY, Strain/Sex: AFRICAN GREEN/MALE,FEMALE, Route: ORAL, Dose: 99-134 MG TOTAL DOSE, 1/WK FOR AT LEAST 2 YR, Tumor Site: Type of Lesion: LIVER: CARCINOMA, HEMANGIOENDOTHELIAL SARCOMA, GALL BLADDER (BILE DUCT): ADENOCARCINOMA, PANCREAS: HEMANGIOENDOTHELIAL S, Tumor Site: Type of Lesion: LIVER: CARCINOMA, HEMANGIOENDOTHELIAL SARCOMA, GALL BLADDER (BILE DUCT): ADENOCARCINOMA, PANCREAS: HEMANGIOENDOTHELIAL S): active; positive
carcinogen call (Species: MONKEY, Strain/Sex: CYNOMOLGUS/MALE,FEMALE, Route: INTRAPERITONEAL, Dose: 99-134 MG TOTAL DOSE, 1/WK FOR AT LEAST 2 YR, Tumor Site: Type of Lesion: LIVER: CARCINOMA, HEMANGIOENDOTHELIAL SARCOMA, GALL BLADDER (BILE DUCT): ADENOCARCINOMA, PANCREAS: HEMANGIOENDOTHELIAL S, Tumor Site: Type of Lesion: LIVER: CARCINOMA, HEMANGIOENDOTHELIAL SARCOMA, GALL BLADDER (BILE DUCT): ADENOCARCINOMA, PANCREAS: HEMANGIOENDOTHELIAL S): active; positive
carcinogen call (Species: MONKEY, Strain/Sex: CYNOMOLGUS/MALE,FEMALE, Route: ORAL, Dose: 99-134 MG TOTAL DOSE, 1/WK FOR AT LEAST 2 YR, Tumor Site: Type of Lesion: LIVER: CARCINOMA, HEMANGIOENDOTHELIAL SARCOMA, GALL BLADDER (BILE DUCT): ADENOCARCINOMA, PANCREAS: HEMANGIOENDOTHELIAL S, Tumor Site: Type of Lesion: LIVER: CARCINOMA, HEMANGIOENDOTHELIAL SARCOMA, GALL BLADDER (BILE DUCT): ADENOCARCINOMA, PANCREAS: HEMANGIOENDOTHELIAL S): active; positive
carcinogen call (Species: MONKEY, Strain/Sex: RHESUS/MALE,FEMALE, Route: INTRAPERITONEAL, Dose: 99-134 MG TOTAL DOSE, 1/WK FOR AT LEAST 2 YR, Tumor Site: Type of Lesion: LIVER: CARCINOMA, HEMANGIOENDOTHELIAL SARCOMA, GALL BLADDER (BILE DUCT): ADENOCARCINOMA, PANCREAS: HEMANGIOENDOTHELIAL S, Tumor Site: Type of Lesion: LIVER: CARCINOMA, HEMANGIOENDOTHELIAL SARCOMA, GALL BLADDER (BILE DUCT): ADENOCARCINOMA, PANCREAS: HEMANGIOENDOTHELIAL S): active; positive
carcinogen call (Species: MONKEY, Strain/Sex: RHESUS/MALE,FEMALE, Route: ORAL, Dose: 99-134 MG TOTAL DOSE, 1/WK FOR AT LEAST 2 YR, Tumor Site: Type of Lesion: LIVER: CARCINOMA, HEMANGIOENDOTHELIAL SARCOMA, GALL BLADDER (BILE DUCT): ADENOCARCINOMA, PANCREAS: HEMANGIOENDOTHELIAL S, Tumor Site: Type of Lesion: LIVER: CARCINOMA, HEMANGIOENDOTHELIAL SARCOMA, GALL BLADDER (BILE DUCT): ADENOCARCINOMA, PANCREAS: HEMANGIOENDOTHELIAL S): active; positive
carcinogen call (Species: MOUSE, Route: INTRAPERITONEAL, Tumor Site: Type of Lesion: LIVER): active; positive
carcinogen call (Species: MOUSE, Route: INTRAPERITONEAL, Tumor Site: Type of Lesion: LUNG): active; positive
carcinogen call (Species: MOUSE, Strain/Sex: DDK/FEMALE, Route: TRANSPLACENTAL, Dose: 0, 20, 40, 80, 120 MG/KG ADMINISTERED INTRAPERITONEALLY TO MOTHERS ON DAY 14 OF GESTATION AND OFFSPRING OBSERVED FOR 12, Dose: 0, 20, 40, 80, 120 MG/KG ADMINISTERED INTRAPERITONEALLY TO MOTHERS ON DAY 14 OF GESTATION AND OFFSPRING OBSERVED FOR 12): inactive; negative
carcinogen call (Species: MOUSE, Strain/Sex: DDK/FEMALE, Route: TRANSPLACENTAL, Dose: 0, 40 MG/KG ADMINISTERED INTRAPERITONEALLY TO MOTHERS ON DAY 14 OF GESTATION AND OFFSPRING OBSERVED FOR 6 MO AFTER BIRTH): inactive; negative
carcinogen call (Species: MOUSE, Strain/Sex: DDK/MALE, Route: TRANSPLACENTAL, Dose: 0, 20, 40, 80, 120 MG/KG ADMINISTERED INTRAPERITONEALLY TO MOTHERS ON DAY 14 OF GESTATION AND OFFSPRING OBSERVED FOR 12, Dose: 0, 20, 40, 80, 120 MG/KG ADMINISTERED INTRAPERITONEALLY TO MOTHERS ON DAY 14 OF GESTATION AND OFFSPRING OBSERVED FOR 12, Tumor Site: Type of Lesion: LIVER: TUMOR): active; positive
carcinogen call (Species: MOUSE, Strain/Sex: DDK/MALE, Route: TRANSPLACENTAL, Dose: 0, 40 MG/KG ADMINISTERED INTRAPERITONEALLY TO MOTHERS ON DAY 14 OF GESTATION AND OFFSPRING OBSERVED FOR 6 MO AFTER BIRTH, Tumor Site: Type of Lesion: LIVER: TUMOR): active; positive
carcinogen call (Species: RAT, Route: INTRAPERITONEAL, ORAL, Tumor Site: Type of Lesion: LIVER): active; positive
carcinogen call (Species: RAT, Strain/Sex: F344/MALE, Route: ORAL, Dose: 0, 50 PPB IN AGAR BASED SEMISYNTHETIC DIET FOR STUDY DURATION (STUDY DURATION: 17 MO), Tumor Site: Type of Lesion: LIVER: HEPATOCELLULAR CARCINOMA): active; positive
carcinogen call (Species: RAT, Strain/Sex: F344/MALE, Route: ORAL, Dose: 50 PPB IN DIET 2/WK FOR 12 MO, Tumor Site: Type of Lesion: LIVER: HEPATOCELLULAR CARCINOMA): active; positive
carcinogen call (Species: RAT, Strain/Sex: SPRAGUE-DAWLEY, Route: DIET, Dose: 0, 25 UG/D FOR 15 DOSES, Tumor Site: Type of Lesion: LIVER: HEPATOCELLULAR CARCINOMA): active; positive
carcinogen call (Species: TROUT, Strain/Sex: MT. SHASTA RAINBOW, Route: ORAL, Dose: 4 PPB IN DIET FOR 12 MO, Tumor Site: Type of Lesion: LIVER: HEPATOMA): active; positive
carcinogen call (Species: TROUT, Strain/Sex: MT. SHASTA RAINBOW, Route: ORAL, Dose: 20 PPB IN DIET FOR 12 MO, Tumor Site: Type of Lesion: LIVER: HEPATOCELLULAR CARCINOMA): active; positive
